The structures appear in SMILES notation.

For data set [1] the following is noted: cited from earlier work.
The test system of the next data set is PA14-biofilms. The data set can be described thus: Bacterial viability in biofilms by LIVE/DEAD staining. The data set is classed as cell-based, Pseudomonas aeruginosa. The note with it: PA14 biofilm; free SMX 1.5 mg/mL. The method, then: Determination of bacterial viability in biofilms by LIVE/DEAD™ staining: PA14-biofilms were developed on 8 Well p-Slide (ibidi GmbH, Germany). 150 μL of the inoculum was incubated in a humidified incubator for 24 hours at 37° C. without shaking. After 24 hours, the fully formed biofilm was gently washed twice with PBS. 160 μL of liposomal suspension or BM2G medium was added to each well, and subsequently, the samples were incubated at 37° C. for 4 hours. Each well was then washed with PBS, and a second dose (170 μL) of antibacterial treatment was applied for 4 hours with incubation at 37° C. Subsequently, biofilm was washed with 180 μL of PBS buffer, and bacteria cells were stained using a BacLight™ Bacterial Viability Kit@ (Thermo Fisher Scientific™, USA). Live bacterial cells were stained with SYTO™ 9 dye (ex: 486/em: 501) and dead cells were stained with propidium iodide (PI) dye (λEx: 535/λEm: 617), with dyes mixed in 1:1 ratio. […] Later, wells were washed twice with PBS, and images of biofilm were acquired using confocal fluorescence microscopy. Cell viability quantification was performed using ImageJ software v1.52i (NIH, USA). Confocal pictures were acquired using a confocal laser scanning fluorescence microscope LSM700 (ZEISS, Germany). […] Images were recorded in brightfield mode and in confocal mode using 488 excitation and 561 excitation laser channels. […]

The pKa is the pH at which an ionisable group is half protonated. Turning to `O=c1oc2c(O)c(O)cc3c(=O)oc4c(O)c(O)cc1c4c23` [Ellagic acid (EA), Ellagic acid], in data set [1], the LogP was 1.59-2.32 and the pKa is 5.8. In the case of `Cc1cc(NS(=O)(=O)c2ccc(N)cc2)no1` [Sulfamethoxazole (SMX), Sulfamethoxazole], in the data set on PA14-biofilms, the “dead cells (red loci) in words” value is “significant increase in the number of red loci”.

The record behind these values is patent US20240390282A1, “DRUG-LOADED LIPOSOMES AND USES THEREOF IN TREATING BIOFILM” (Yeda Research and Development Co. Ltd., priority 2022, published 2024).
